# US9670212B2, “Inhibitors of PI3K-delta and methods of their use and manufacture” (Exelixis, Inc., priority 2010, dated 2017)
# Biological target: PI3K delta (Homo sapiens (Human), UniProt O00329)
# Test: Luciferase-coupled chemiluminescence kinase assay (KinaseGlo, ATP consumption)
# Format: biochemical
# Outline: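 Kinase, compound and ATP (at or below KM) reacted 2 h at ambient temperature; remaining ATP detected by KinaseGlo luciferase chemiluminescence as percent ATP consumed. 10-point dose-response, curves fitted to give IC50.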
# PI3K delta, sequence (O00329 whole entry): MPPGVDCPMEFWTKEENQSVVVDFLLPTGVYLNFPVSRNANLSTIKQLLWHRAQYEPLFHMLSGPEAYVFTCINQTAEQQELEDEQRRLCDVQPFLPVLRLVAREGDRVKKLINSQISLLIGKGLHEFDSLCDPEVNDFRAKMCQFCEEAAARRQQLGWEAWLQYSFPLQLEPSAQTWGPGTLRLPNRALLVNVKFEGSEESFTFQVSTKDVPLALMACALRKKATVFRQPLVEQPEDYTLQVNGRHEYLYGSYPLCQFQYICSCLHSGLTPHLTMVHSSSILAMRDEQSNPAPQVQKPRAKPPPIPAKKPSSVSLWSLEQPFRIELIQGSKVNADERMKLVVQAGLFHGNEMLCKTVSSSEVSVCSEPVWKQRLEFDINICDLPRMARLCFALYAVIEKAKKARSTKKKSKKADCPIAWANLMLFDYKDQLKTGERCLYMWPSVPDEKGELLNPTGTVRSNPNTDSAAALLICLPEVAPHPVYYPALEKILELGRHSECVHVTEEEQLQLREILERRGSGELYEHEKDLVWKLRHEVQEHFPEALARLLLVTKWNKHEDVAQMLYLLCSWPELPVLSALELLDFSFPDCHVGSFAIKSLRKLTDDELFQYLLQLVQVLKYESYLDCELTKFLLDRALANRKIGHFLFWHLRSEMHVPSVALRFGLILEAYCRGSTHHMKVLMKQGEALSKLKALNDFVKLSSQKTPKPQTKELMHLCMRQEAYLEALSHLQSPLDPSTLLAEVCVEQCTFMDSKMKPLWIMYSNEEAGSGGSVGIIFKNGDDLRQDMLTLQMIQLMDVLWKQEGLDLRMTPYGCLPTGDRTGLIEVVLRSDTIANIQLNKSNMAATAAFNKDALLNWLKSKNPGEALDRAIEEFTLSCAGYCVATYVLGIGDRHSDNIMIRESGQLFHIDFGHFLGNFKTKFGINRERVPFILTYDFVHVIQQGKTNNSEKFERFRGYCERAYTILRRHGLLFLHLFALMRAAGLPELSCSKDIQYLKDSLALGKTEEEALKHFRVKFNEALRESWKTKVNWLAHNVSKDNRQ
# PI3K delta, sequence (P27986 whole entry partner): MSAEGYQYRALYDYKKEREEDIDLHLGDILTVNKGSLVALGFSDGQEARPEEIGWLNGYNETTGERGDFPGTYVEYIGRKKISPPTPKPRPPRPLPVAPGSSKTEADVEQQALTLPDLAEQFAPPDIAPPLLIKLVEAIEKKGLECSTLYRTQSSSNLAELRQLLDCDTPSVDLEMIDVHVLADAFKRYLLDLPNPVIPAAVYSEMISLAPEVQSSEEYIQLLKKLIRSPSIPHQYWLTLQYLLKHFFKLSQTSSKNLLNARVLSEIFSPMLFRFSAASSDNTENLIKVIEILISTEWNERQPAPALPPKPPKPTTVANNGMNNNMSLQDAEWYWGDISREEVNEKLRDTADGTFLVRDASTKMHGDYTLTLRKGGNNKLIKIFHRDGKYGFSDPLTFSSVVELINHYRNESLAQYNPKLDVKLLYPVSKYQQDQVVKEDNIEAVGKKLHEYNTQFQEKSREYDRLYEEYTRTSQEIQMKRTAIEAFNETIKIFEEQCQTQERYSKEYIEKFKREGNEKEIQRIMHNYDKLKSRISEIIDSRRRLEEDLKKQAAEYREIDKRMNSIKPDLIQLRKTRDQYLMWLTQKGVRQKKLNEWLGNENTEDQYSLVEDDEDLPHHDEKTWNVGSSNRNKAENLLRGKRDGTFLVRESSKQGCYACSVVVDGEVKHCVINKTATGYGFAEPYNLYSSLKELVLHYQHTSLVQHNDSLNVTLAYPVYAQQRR
row,SMILES,IC50 [µM]
1,"Cc1ccccc1-n1c(CNC(=O)c2nccnc2Cl)nc2cccc(C)c2c1=O [Compound 159, 3-chloro-N-{[5-methyl-3-(2-methylphenyl)-4-oxo-3,4-dihydroquinazolin-2-yl]methyl}pyrazine-2-carboxamide]",0.5 to 1.5
2,"Cc1ccccc1-n1c(CNC(=O)c2nc(Br)cnc2N)nc2cccc(C)c2c1=O [Compound 160, 3-amino-6-bromo-N-{[5-methyl-3-(2-methylphenyl)-4-oxo-3,4-dihydroquinazolin-2-yl]methyl}pyrazine-2-carboxamide]",0.5 to 1.5
3,"Cc1ccccc1-n1c(CNC(=O)c2ncccc2N)nc2cccc(C)c2c1=O [Compound 161, 3-amino-N-{[5-methyl-3-(2-methylphenyl)-4-oxo-3,4-dihydroquinazolin-2-yl]methyl}pyridine-2-carboxamide]",0.5 to 1.5
4,"Cc1ccccc1-n1c(Cn2cnc3c(N)ncnc32)nc2ccsc2c1=O [Compound 162, 2-[(6-amino-9H-purin-9-yl)methyl]-3-(2-methylphenyl)thieno[3,2-d]pyrimidin-4(3H)-one]",0.5 to 1.5
5,"Cc1ccccc1-n1c(CSc2ncnc3nc[nH]c23)nc2ccsc2c1=O [Compound 163, 3-(2-methylphenyl)-2-[(7H-purin-6-ylthio)methyl]thieno[3,2-d]pyrimidin-4(3H)-one]",0.5 to 1.5
6,"Cc1cccc2cc(Cn3cnc4c(N)ncnc43)c(NC3CCN(C)CC3)nc12 [Compound 164, 3-[(6-amino-9H-purin-9-yl)methyl]-8-methyl-N-(1-methylpiperidin-4-yl)quinolin-2-amine]",0.5 to 1.5
7,"Cc1cccc2cc(Cn3cnc4c(N)ncnc43)c(NC3CCOCC3)nc12 [Compound 165, 3-[(6-amino-9H-purin-9-yl)methyl]-8-methyl-N-(tetrahydro-2H-pyran-4-yl)quinolin-2-amine]",0.5 to 1.5
8,"CC(=O)N1CCN(c2nc3c(C)cccc3cc2Cn2cnc3c(N)ncnc32)CC1 [Compound 166, 9-{[2-(4-acetylpiperazin-1-yl)-8-methylquinolin-3-yl]methyl}-9H-purin-6-amine]",0.05 to 0.25
9,"COCCNc1nc2c(C)cccc2cc1Cn1cnc2c(N)ncnc21 [Compound 167, 3-[(6-amino-9H-purin-9-yl)methyl]-8-methyl-N-[2-(methyloyx)ethyl]quinolin-2-amine]",0.5 to 1.5
10,"Cc1ccccc1-c1c(Cn2cnc3c(N)ncnc32)nc2ccccc2c1C [Compound 168, 9-{[4-methyl-3-(2-methylphenyl)quinolin-2-yl]methyl}-9H-purin-6-amine]",0.5 to 1.5
11,"Cc1ccccc1-c1c(Cn2cnc3ncnc(N)c32)nc2ccccc2c1C [Compound 169, 7-{[4-methyl-3-(2-methylphenyl)quinolin-2-yl]methyl}-7H-purin-6-amine]",0.5 to 1.5
12,"Cc1ccccc1-n1c(CNC(=O)c2ccnc(N)c2)nc2cccc(C)c2c1=O [Compound 174, 2-amino-N-{[5-methyl-3-(2-methylphenyl)-4-oxo-3,4-dihydroquinazolin-2-yl]methyl}pyridine-4-carboxamide]",0.5 to 1.5
13,"Cc1ccccc1-n1c(CNC(=O)c2nccnc2N)nc2cccc(C)c2c1=O [Compound 175, 3-amino-N-{[5-methyl-3-(2-methylphenyl)-4-oxo-3,4-dihydroquinazolin-2-yl]methyl}pyrazine-2-carboxamide]",< 0.05
14,"Cc1ccccc1-n1c(CNC(=O)c2cccnc2N)nc2cccc(C)c2c1=O [Compound 176, 2-amino-N-{[5-methyl-3-(2-methylphenyl)-4-oxo-3,4-dihydroquinazolin-2-yl]methyl}pyridine-3-carboxamide]",0.5 to 1.5

# Next, values leading:
row,IC50 [µM],SMILES
1,0.05 to 0.25,"Cc1cccc2cc(Cn3cnc4c(N)ncnc43)c(N3CCCC3C)nc12 (stereo not shown) [Compound 170, 9-{[8-methyl-2-(2-methylpyrrolidin-1-yl)quinolin-3-yl]methyl}-9H-purin-6-amine]"
2,0.05 to 0.25,"Cc1cccc2cc(Cn3cnc4c(N)ncnc43)c(N3CCCC3)nc12 [Compound 171, 9-[(8-methyl-2-pyrrolidin-1-ylquinolin-3-yl)methyl]-9H-purin-6-amine]"
3,0.05 to 0.25,"Cc1cccc2cc(Cn3cnc4c(N)ncnc43)c(N3CCNCC3)nc12 [Compound 172, 9-[(8-methyl-2-piperazin-1-ylquinolin-3-yl)methyl]-9H-purin-6-amine]"
4,0.05 to 0.25,"Cc1cccc2cc(Cn3cnc4c(N)ncnc43)c(N3CCN(C)CC3)nc12 [Compound 173, 9-{[8-methyl-2-(4-methylpiperazin-1-yl)quinolin-3-yl]methyl}-9H-purin-6-amine]"
5,0.05 to 0.25,"Cc1cccc2cc(Cn3cnc4c(N)ncnc43)c(N3CCOCC3)nc12 [Compound 177, 9-[(8-methyl-2-morpholin-4-ylquinolin-3-yl)methyl]-9H-purin-6-amine]"
6,0.05 to 0.25,"Cc1ccccc1-c1cc2ccccc2nc1Cn1cnc2ncnc(N)c21 [Compound 178, 7-{[3-(2-methylphenyl)quinolin-2-yl]methyl}-7H-purin-6-amine]"
7,0.5 to 1.5,"Cc1ccccc1-c1cc2ccccc2nc1Cn1cnc2c(N)ncnc21 [Compound 179, 9-{[3-(2-methylphenyl)quinolin-2-yl]methyl}-9H-purin-6-amine]"
8,0.5 to 1.5,"Cc1cccc(-c2nc3c(C)cccc3cc2Cn2cnc3c(N)ncnc32)c1C [Compound 180, 9-{[2-(2,3-dimethylphenyl)-8-methylquinolin-3-yl]methyl}-9H-purin-6-amine]"
9,0.05 to 0.25,"Cc1cccc2cc(Cn3cnc4c(N)ncnc43)c(-c3ccccc3C(F)(F)F)nc12 [Compound 182, 9-({8-methyl-2-[2-(trifluoromethyl)phenyl]quinolin-3-yl}methyl)-9H-purin-6-amine]"
10,0.25 to 0.5,"Cc1cccc(-c2nc3c(C)cccc3cc2Cn2cnc3c(N)ncnc32)c1 [Compound 183, 9-{[8-methyl-2-(3-methylphenyl)quinolin-3-yl]methyl}-9H-purin-6-amine]"
11,0.25 to 0.5,"COCCOc1cccc(-c2nc3c(C)cccc3cc2Cn2cnc3c(N)ncnc32)c1 [Compound 184, 9-{[8-methyl-2-(3-{[2-(methyloxy)ethyl]oxy}phenyl)quinolin-3-yl]methyl}-9H-purin-6-amine]"
12,0.25 to 0.5,"COc1cccc(-c2nc3c(C)cccc3cc2Cn2cnc3c(N)ncnc32)c1 [Compound 185, 9-({8-methyl-2-[3-(methyloxy)phenyl]quinolin-3-yl}methyl)-9H-purin-6-amine]"
13,0.05 to 0.25,"Cc1cccc2cc(Cn3cnc4c(N)ncnc43)c(-c3ccccc3Cl)nc12 [Compound 187, 9-{[2-(2-chlorophenyl)-8-methylquinolin-3-yl]methyl}-9H-purin-6-amine]"
14,0.05 to 0.25,"Cc1ccccc1-c1nc2c(C)cccc2cc1CSc1ncnc2[nH]cnc12 [Compound 188, 8-methyl-2-(2-methylphenyl)-3-[(9H-purin-6-ylthio)methyl]quinoline]"
15,0.05 to 0.25,"Cc1ccccc1-c1nc2c(C)cccc2cc1Cn1cnc2c(N)ncnc21 [Compound 189, 9-{[8-methyl-2-(2-methylphenyl)quinolin-3-yl]methyl}-9H-purin-6-amine]"
16,0.5 to 1.5,"Cc1ccccc1-c1nc2ccccc2nc1Cn1cnc2c(N)ncnc21 [Compound 190, 9-{[3-(2-methylphenyl)quinoxalin-2-yl]methyl}-9H-purin-6-amine]"
17,0.5 to 1.5,"Cc1ccccc1-c1nc2ccccc2cc1Cn1cnc2c(N)ncnc21 [Compound 191, 9-{[2-(2-methylphenyl)quinolin-3-yl]methyl}-9H-purin-6-amine]"
